We go through two substances from patent US8603532B2, “Nanostructures for drug delivery” (priority 2008, dated 2013).

Where two headings read alike, the source gives them in different places.

The test system of data set [1] is Male Sprague Dawley Rats. The data set is described as follows: Maximum tolerated dose (MTD) study, intravenous. The class given is in vivo. The conditions noted are these: for Death: 3 rats; for dose tolerated by the rats / MTD: i.v.; for dose tolerated by the rats: survival; for MTD: 14 days monitoring. From the text: The maximum tolerated dose (MTD) of chemotherapeutic agents may be a critical factor for achieving optimal therapeutic benefit. The effectiveness of chemotherapeutic agents is generally proportional to the dose of the agents at their targets; however, the dose may be limited by systemic toxicity. In this non-limiting example, the therapeutic effectiveness of a platinum(IV) prodrug was attempted to be increased by increasing the maximum tolerated dose (MTD) of the prodrug by using a polymeric nanoparticle drug delivery systems. Various doses of cisplatin, Pt(IV)-prodrug (compound 1 from Example 1), Pt—NP (from Example 1), or PLGA-PEG-NP (control, nanoparticles not comprising platinum complexes) were injected intravenously and the MTD was estimated based on the threshold at which all […] survived.
Male Sprague Dawley Rats were used for MTD determination with intravenous administration. All rats treated with plain nanoparticles tolerated these doses. In the Pt—NP group, rats receiving doses up to 40 mg/kg tolerated the dose, but two of three in the 50 and 60-mg/kg groups died. Only the dose of 20 mg/kg free cisplatin or Pt(IV)-prodrug were tolerated by the rats. To further define the MTD, overall toxicity was monitored for 14 days. As a sign of toxicity, the body weights of rats were measured.

A short description of data set [2]: Blood circulation and excretion studies. The class given is in vivo. The conditions noted are these: rat, 2 mg/kg i.v., 1 h post administration. How it is done: Male Sprague Dawley rats were used in this study. Separate groups of animals received i.v. injections of Pt—NP (2 mg/kg) or Pt(IV)-prodrug (2 mg/kg) and were placed in metabolism cages. Blood was collected at predetermined time points in heparinized tubes. Whole organs or representative tissue samples were removed and weighed where necessary. Urine was collected for 24 h. Plasma was obtained from the blood samples by […]. Samples were analyzed for their platinum content using a Perkin Elmer Flameless Atomic Absorption Spectrophotometer.

Data set [3] is described as follows: Cyclic voltammetry, Pt(IV)/Pt(II) reduction potential. The class given is physicochemical. How it is done: The identity of the platinum species released from the polymeric nanoparticles was determined by ESI-MS. […] The redox potentials were also investigated for reduction of compound 1 at various pH values. […] NPs before reaching the nuclear DNA.
Data set [4] deals with PSMA+ LNCaP cells. The experiment in a line: In vitro cytotoxicity, MTT assay. The class given is cell-based, human. The conditions noted are these: 72 h. How it is done:
(§1) A series of in vitro cytotoxicity assays were performed to understand the anti-cancer properties of platinum(IV)-encapsulated nanoparticles, using human prostate cancer cells, and directly compared its efficacy to that of free cisplatin. The choice of the cancer cells was based on the presence of PSMA, as mentioned before. […] As shown in this figure, the Pt(IV)encapsulated polymeric nanoparticles containing PSMA aptamers on the surface (Pt—NP-Apt) were highly cytotoxic to the LNCaP cells, which up-regulate PSMA on the surface, giving an IC50 value of 0.03 μM. […] The PSMA^+ aptamer targeted Pt(IV)-encapsulated PLGA-b-PEG nanoparticles (Pt—Np-Apt) were 80 times more toxic in the PSMA LNCaP cells, indicating potential application of these nanoparticles in human prostate cancer.

The subject of data set [5] is PC3 cells. The experiment in a line: In vitro cytotoxicity, MTT assay. The class given is cell-based, human. The conditions noted are these: 72 h. How it is done: as §1
For data set [6] the following is noted: 1 h post administration, literature value; cited from earlier work.

For “c,c,t-[Pt(NH3)2(O2CCH2CH2CH2CH2CH2)2Cl2] [compound 1]”, the Death in data set [1] (5 mg/kg i.v.) amounted to 0; in data set [1] (10 mg/kg i.v.), 0; in data set [1] (20 mg/kg i.v.), 0; in data set [1] (40 mg/kg i.v.) it was 2. Further, the “dose tolerated by the rats” value in data set [1] worked out at 20 mg/kg. This substance also registered an MTD in data set [1] (rats) of 20 mg/kg. For the same substance, in data set [1] (rats, up to 20 mg/kg, 14 days), the body weight change entry is recorded as “did not show any weight loss”. In data set [2], the “platinum dose remaining in the systemic circulation” value amounted to 15.6%. The “Pt(IV)/Pt(II) couple, irreversible cyclic voltammetric response” value was ~−0.243 V vs. NHE in data set [3] (1:4 DMF-sodium phosphate buffer, pH 6.0); ~−0.233 V vs. NHE in data set [3] (1:4 DMF-sodium phosphate buffer, pH 7.4); ~−0.805 V vs. NHE in data set [3] (MeCN-0.1 M TBAPF6).
Regarding “[cis-Pt(NH3)2Cl2] [cisplatin, reference compound]”, the IC50 amounted to 2.4 µM in data set [4] and 0.18 µM in data set [5]. The Death in data set [1] (5 mg/kg i.v.) amounted to 0; in data set [1] (10 mg/kg i.v.), 0; in data set [1] (20 mg/kg i.v.), 0; in data set [1] (40 mg/kg i.v.), 3. Further, the “dose tolerated by the rats” value in data set [1] was determined as 20 mg/kg. The substance further came in with a maximal tolerated dose (MTD) in data set [1] (rats) of 20 mg/kg. Moreover, the “platinum dose remaining in the systemic circulation” value in data set [6] is listed as 1.5%.
